Data on 3 compounds can be found in patent publication US11110067B2 (THE BOARD OF REGENTS OF THE UNIVERSITY OF TEXAS SYSTEM, priority 2008, dated 2021).

In data set [1] the test system is genetically heterogeneous mice. The experiment in a line: Lifespan of mice fed test agents in the diet (Cohort 2005; rapamycin from 600 days of age). Particulars: for Survival compared with controls: added to the diet at 4 months of age, enalapril 120 mg/kg food, CAPE 30 or 300 mg/kg food; for Effect size expressed as life expectancy at 600 days / Effect size expressed as mean lifespan: pooled data set.
Excerpt: Mice were produced at each of the three test sites by mating CB6F1 females with C3D2F1 males to produce a genetically heterogeneous population. […] Each test site enrolled approximately equal numbers of 19-21 day-old weanlings each month over a six month period, housing 3 males or 4 females/cage. Each site used diets that the manufacturer claimed were based on the NIH-31 standard for breeding cages and the period between weaning and the initiation of experimental diets, as follows: For breeding cages, UM used Purina 5008, UT used Teklad 7912, and TJL used Purina 5K52. For weanlings prior to 4 months of age, UM used Purina 5008, UT used Teklad 7912, and TJL used Purina 5LG6. Starting when 4 months old, mice in the Control, Enalapril, and CAPE groups received Purina 5LG6 at all three sites, without additives (control group) or with the test agent. […] The principal endpoint was age at death (for mice found dead at daily inspections) or age at euthanasia (for mice deemed unlikely to survive for more than an additional 48 h).
The Cohort 2005 study population, distributed almost equally among the three test sites, consisted initially of 1960 mice, of which 674 were assigned to the control group and 317 to 328 to each of the four treatment groups. Of these, 51 mice were removed from the study because of fighting (31 mice), accidental death (such as chip implantation or cage flooding; 13 mice), or because of technical error (error in gender assignment or diet selection; 7 mice). For survival analyses, mice were treated as alive at the date of their removal from the protocol, and lost to follow-up thereafter. These censored mice were not included in calculations of median longevity.
Mice were examined at least daily for signs of ill health, and were euthanized for humane reasons if they were so severely moribund that they were considered, by an experienced technician, unlikely to survive for more than an additional 48 hrs. […] The age at which a moribund mouse was euthanized was taken as the best available estimate of its natural lifespan. Mice found dead were also noted at each daily inspection.
TestDiet, Inc. (Richmond, Ind.) prepared batches of Purina 5LG6 food containing each of the test substances, as well as control diet batches, at intervals of approximately 120 days, and shipped each batch of food at the same time to each of the three test sites. Enalapril was purchased from Sigma (catalogue E6888-5G) and used at 120 mg per kg food; on the assumption that the average mouse weighs 30 gm and consumes 5 gm of food/day, this dose supplies 20 mg enalapril per kg body weight/day. CAPE, i.e. caffeic acid phenethyl ester, was purchased from Cayman (Ann Arbor, Mich.; Catalogue 70750), and used at either of two doses: the high dose was 300 mg/kg food (50 mg/kg body weight/day), and the low dose was 30 mg/kg food (5 mg/kg body weight/day).

Data set [2] deals with phosphorylation of ribosomal protein S6 (Ser240/244), a substrate of S6 kinase 1. In words: Immunoblot of rpS6 phosphorylation in tissue lysates. The class given is in vivo, mouse. As to conditions: visceral white adipose tissue; fed from 270 to about 800 days of age. The protocol: Signal intensities for each immunoblot were captured using a Kodak Image Station, which were analysed using Kodak 1D image analysis software.
On the technique in general: In western blotting, separated proteins are transferred to a membrane and probed.

The nature of data set [3]: Body weight of rapamycin-fed mice. Type of data set: in vivo, mouse.
In data set [4] the test system is Aβ / APP in brains of hAPP(J20) mice. The experiment in a line: APP Western blots and Aβ ELISA in brain, hAPP(J20) mice. The class given is in vivo, mouse. The procedure:
(§1) Tissue was processed and analyzed as described previously 13, 25, 26 and is described in detail in Supplementary Information. Aβ and tau were measured using specific ELISAs.
(§2) 3×Tg-AD mice were sacrificed by CO2 asphyxiation. The brains were extracted and cut in-half sagitally and tissue was processed as described (Oddo et al., 2008). The hAPP(J20) mice were euthanized by isoflurane overdose. Hemibrains were flash frozen. One hemibrain was homogeneized in liquid N2 while the other was used in immunohistochemical determinations. For Western blot analyses, proteins from both hAPP(J20) and 3×Tg-AD soluble fractions were resolved by SDS/PAGE (Invitrogen, Temecula, Calif.) under reducing conditions and transferred to a nitrocellulose or PVDF membrane. The membrane was incubated in a 5% solution of non-fat milk or in 5% BSA for 1 hour at 20° C. […] Aβ40 and Aβ42 levels were measured from the soluble and insoluble fractions using a sandwich ELISA protocol as described previously (Oddo et al., 2005). Aβ40 and Aβ42 in hAPP(J20) mice were quantitated in guanidine homogenates of Tg hAPP(J20) hemibrains as described (Galvan et al., 2006) using specific ELISA assays (Invitrogen, Carlsbad, Calif.).

The subject of data set [5] is Aβ / APP in brains of 3×Tg-AD mice. The experiment in a line: APP Western blots, Aβ ELISA and immunohistochemistry in brain, 3xTg-AD mice. The class given is in vivo, mouse. As to conditions: ELISA. The protocol: as §1
as §2, with “Calif.). […]” for “Calif.).”

The conditions of data set [6]: Pong and Zaleska, 2003; cited from earlier work.
The subject of data set [7] is HET3 mice. The experiment in a line: Glucose tolerance on high fat diet. The class given is in vivo, mouse. Particulars: HET3 mice fed a high fat diet.

Take `O=C(/C=C/c1ccc(O)c(O)c1)OCCc1ccccc1` [CAPE, caffeic acid phenethyl ester]: in data set [1], the “Survival compared with controls” value was “did not differ from controls”.
As for `CCOC(=O)[C@H](CCc1ccccc1)N[C@@H](C)C(=O)N1CCC[C@H]1C(=O)O` [enalapril], the “Survival compared with controls” value in data set [1] was “did not differ from controls”.
Turning to `CO[C@H]1C[C@@H]2CC[C@@H](C)[C@@](O)(O2)C(=O)C(=O)N2CCCC[C@H]2C(=O)O[C@H]([C@H](C)C[C@@H]2CC[C@@H](O)[C@H](OC)C2)CC(=O)[C@H](C)/C=C(\C)[C@@H](O)[C@@H](OC)C(=O)[C@H](C)C[C@H](C)/C=C/C=C/C=C/1C` [rapamycin, (3S,6R,7E,9R,10R,12R,14S,15E,17E,19E,21S,23S,26R,27R,34aS)-9,10,12,13,14,21,22,23,24,25,26,27,32,33,34,34a-hexadecahydro-9,27-dihydroxy-3-[(1R)-2-[(1S,3R,4R)-4-hydroxy-3-methoxycyclohexyl]-1-methylethyl]-10,21-dimethoxy-6,8,12,14,20,26-hexamethyl-23,27-epoxy-3H-pyrido[2,1-c][1,4]oxaazacyclohentria-contine-1,5,11,28,29 (4H,6H,31H)-pentone], the “Reduction of levels of phosphorylated rpS6” value in data set [2] is listed as 4-5 fold. Further, the “Increase of life expectancy at 600 days” value in data set [1] (females, TJL) stood at 45%; in data set [1] (females, UM), 48%; in data set [1] (females, UT) it was 22%; in data set [1] (males, TJL) it was 16%; in data set [1] (males, UM), 23%; in data set [1] (males, UT) it was 52%. Besides, the Mean lifespan increase came to 15% in data set [1] (females, TJL); 16% in data set [1] (females, UM); 7% in data set [1] (females, UT); 5% in data set [1] (males, TJL); 8% in data set [1] (males, UM); 15% in data set [1] (males, UT). Moreover, the “Percentage increase of age at 90th percentile versus controls” value is 17% in data set [1] (females, TJL); 14% in data set [1] (females, UM); 8% in data set [1] (females, UT); 14% in data set [1] (females, all sites); 10% in data set [1] (males, TJL); 4% in data set [1] (males, UM). Also, the “Percentage increase of age at 90th percentile versus controls” value in data set [1] (males, UT) is given as 16%; in data set [1] (males, all sites) it was 9%. Further, the “% Live at the 90th percentile age of the joint distribution” value in data set [1] (females, TJL, age 1167 days) worked out at 22.9%; in data set [1] (females, UM, age 1162 days) it was 27.1%; in data set [1] (females, UT, age 1123 days), 14.6%; in data set [1] (females, pooled sites), 21.5%; in data set [1] (females, pooled sites, listed as Rapa), 21.5%; in data set [1] (males, TJL, age 1088 days), 19.3%. The “% Live at the 90th percentile age of the joint distribution” value in data set [1] (males, UM, age 1154 days) came to 17.6%; in data set [1] (males, UT, age 1112 days), 23.3%; in data set [1] (males, pooled sites), 20.2%; in data set [1] (males, pooled sites, listed as Rapa) it was 20.2%. Moreover, the “Number alive at the 90th percentile age” value is listed as 11 in data set [1] (females, TJL, age 1167 days); 13 in data set [1] (females, UM, age 1162 days); 7 in data set [1] (females, UT, age 1123 days); 31 in data set [1] (females, pooled sites); 11 in data set [1] (males, TJL, age 1088 days); 9 in data set [1] (males, UM, age 1154 days). Moreover, the “Number alive at the 90th percentile age” value stood at 14 in data set [1] (males, UT, age 1112 days) and 34 in data set [1] (males, pooled sites). The “Number dead at the 90th percentile age” value is recorded as 37 in data set [1] (females, TJL, age 1167 days); 35 in data set [1] (females, UM, age 1162 days); 41 in data set [1] (females, UT, age 1123 days); 113 in data set [1] (females, pooled sites); 46 in data set [1] (males, TJL, age 1088 days); 42 in data set [1] (males, UM, age 1154 days). In addition, the “Number dead at the 90th percentile age” value is on record as 48 in data set [1] (males, UT, age 1112 days) and 134 in data set [1] (males, pooled sites). In addition, the “Effect size expressed as life expectancy at 600 days” value in data set [1] (females) is 38%; in data set [1] (males), 28%. Besides, the “Effect size expressed as mean lifespan” value in data set [1] (females) is given as 13%; in data set [1] (males), 9%. For the same compound, the Body weight entry in data set [3] (high fat diet, 12 weeks of feeding) is on record as “No difference”; in data set [3] (mouse, in vivo), “No effect”. Also, the “Decrease of soluble Aβ42 levels” value in data set [4] amounted to 52.35±13.14%; in data set [5] it was 32.78±6.68%. Also, the “Blood brain barrier passage” value in data set [6] is listed as “readily crosses the blood brain barrier”. In addition, the Glucose tolerance result in data set [7] was “causes glucose intolerance”.
